Source: patent US12685312B2, “Sulfonamide apyrase inhibitors” (Texas Crop Science, Inc., priority 2022, dated 2026)

What follows are compounds tested on apyrase (assay: Screen for apyrase inhibitors (Method 1, in vitro phosphate-release absorbance assay)). Details: inhibitor conc at 1 mM stock, 1 hr room temperature, absorbance 630 nm; rounded average of two assay results.
Assay type: biochemical
Procedure, shortened: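 Phosphate-release colorimetric assay (Windsor method) in 60 mM Hepes, 3 mM MgCl2, 3 mM CaCl2, 3 mM ATP, pH 6.5, with compound or DMSO control added. Released phosphate developed with ammonium molybdate and ascorbic acid/TCA, then stopped with citrate/acetic acid.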

Row | SMILES | % Inhibition of Apyrase [%]
1 | Cc1ccc(NS(=O)(=O)c2ccc(C(=O)Nc3ccccc3C)cc2)cc1 [I-394, N-(o-tolyl)-4-(N-(p-tolyl)sulfamoyl)benzamide] | 54
2 | COc1ccc(NS(=O)(=O)c2ccc(C(=O)Nc3ccc(F)cc3C)cc2)cc1 [I-416, N-(4-fluoro-2-methylphenyl)-4-(N-(4-methoxyphenyl)sulfamoyl)benzamide] | 13
3 | O=C(Nc1ccc(Br)cn1)c1cccc(NS(=O)(=O)c2ccc(F)c(Cl)c2)c1 [I-666, N-(5-bromopyridin-2-yl)-3-((3-chloro-4-fluorophenyl)sulfonamido)benzamide] | 21
4 | O=C(Nc1ccccc1[N+](=O)[O-])c1cc(S(=O)(=O)Nc2ccc(Br)cc2)ccc1Cl [I-44, 5-(N-(4-bromophenyl)sulfamoyl)-2-chloro-N-(2-nitrophenyl)benzamide] | 13
5 | O=C(Nc1cccc(S(=O)(=O)Nc2cccc(Cl)c2)c1)c1ccccn1 [I-741, N-(3-(N-(3-chlorophenyl)sulfamoyl)phenyl)picolinamide] | 50
6 | O=C(Nc1cccc(F)c1)c1cccc(S(=O)(=O)N2CCc3ccccc32)c1 [I-443, N-(3-fluorophenyl)-3-(indolin-1-ylsulfonyl)benzamide] | 61
7 | COc1ccccc1C(=O)Nc1cccc(NS(=O)(=O)c2ccc(C)c(C)c2)c1 [I-341, N-(3-((3,4-dimethylphenyl)sulfonamido)phenyl)-2-methoxybenzamide] | 64
8 | O=C(Nc1cccc(S(=O)(=O)Nc2ccccc2Cl)c1)c1ccccn1 [I-745, N-(3-(N-(2-chlorophenyl)sulfamoyl)phenyl)picolinamide] | 46
9 | O=C(Nc1ccc(OCC(F)(F)F)cc1)c1cccc(S(=O)(=O)Nc2ccc3c(c2)OCO3)c1 [I-259, 3-(N-(benzo[d][1,3]dioxol-5-yl)sulfamoyl)-N-(4-(2,2,2-trifluoroethoxy)phenyl)benzamide] | 60
10 | O=C(c1ccc(NS(=O)(=O)c2ccc3c(c2)OCCCO3)cc1)N1CCc2ccccc21 [I-923, N-(4-(indoline-1-carbonyl)phenyl)-3,4-dihydro-2H-benzo[b][1,4]dioxepine-7-sulfonamide] | 57
11 | COc1ccccc1NS(=O)(=O)c1ccc(NC(=O)c2cccc(C#N)c2)cc1 [I-997, 3-cyano-N-(4-(N-(2-methoxyphenyl)sulfamoyl)phenyl)benzamide] | 43
12 | O=C(Nc1cccc(S(=O)(=O)Nc2ccc(Cl)cc2)c1)c1cc2c(s1)CCCC2 [I-709, N-(3-(N-(4-chlorophenyl)sulfamoyl)phenyl)-4,5,6,7-tetrahydrobenzo[b]thiophene-2-carboxamide] | 61
13 | Cc1ccc(S(=O)(=O)Nc2cccc(C(=O)Nc3cccc(C)c3)c2)cc1 [I-14, 3-((4-methylphenyl)sulfonamido)-N-(m-tolyl)benzamide] | 59
14 | COc1cc(C(=O)Nc2cccc(NS(=O)(=O)c3ccc(C)c(C)c3)c2)cc2c1OCCO2 [I-339, N-(3-((3,4-dimethylphenyl)sulfonamido)phenyl)-8-methoxy-2,3-dihydrobenzo[b][1,4]dioxine-6-carboxamide] | 69
15 | CC1Cc2ccccc2N1C(=O)c1cccc(S(=O)(=O)Nc2cc(C(F)(F)F)ccc2Cl)c1 (stereo not shown) [I-579, N-(2-chloro-5-(trifluoromethyl)phenyl)-3-(2-methylindoline-1-carbonyl)benzenesulfonamide] | 48
16 | O=C(Nc1cccc(S(=O)(=O)Nc2ccc(Cl)cc2)c1)c1ccc(Cl)nc1 [I-764, 6-chloro-N-(3-(N-(4-chlorophenyl)sulfamoyl)phenyl)nicotinamide] | 15
